Laboratory results taken from patent publication US9409952B2, “Peptide-compound cyclization method” (Chugai Seiyaku Kabushiki Kaisha, priority 2011, dated 2016).
Like-named read-outs stand apart in the source and are kept apart here. Starred links: 1 amine or outer side, 2 acyl side, 3 side chain; linkers in the order of their positions; H or OH if unused. Positions of bridges follow the written chain, without caps; N, C: chain ends. Non-standard residues stand in square brackets, D forms with d. Residues, ends and D or L forms follow the SMILES beside them. *: point of attachment. NEtPhe = CCN[C@@H](Cc1ccccc1)C(=O)O; NMeF = CN[C@@H](Cc1ccccc1)C(=O)O; NMeGABA = CN(CCCC(=O)[*:2])[*:1]; NMeI = CC[C@H](C)[C@H](NC)C(=O)O; NMeL = CN[C@@H](CC(C)C)C(=O)O; NMeV = CN[C@H](C(=O)O)C(C)C; NMeA = CN[C@@H](C)C(=O)O; Piperidide = C1CCN(*)CC1; dNMeA = CN[C@H](C)C(=O)O; NPrGly = CCCNCC(=O)O; Sar = CNCC(=O)O; tBu = CC(C)(C)*

Legend:
[1] = PAMPA (parallel artificial membrane permeability assay); type: in vitro ADME; settings: PAMPA
Procedure, shortened: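 Artificial membrane was 10% (w/v) egg lecithin plus 0.5% (w/v) cholesterol in dodecane on a PVDF filter. A 10 mM DMSO stock was added at 0.5% (v/v) to donor buffer (50 mM MOPSO, pH 6.5, 5.0% glycocholic acid). After 18 h at 37 °C, LC/MS or LC/UV gave donor and acceptor levels for Pe.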

[2] = Metabolic stability in human hepatic microsome; type: in vitro ADME; settings: microsomes
[3] = membrane permeation rate (Pe), 50 mM MOPSO buffer pH 6.5 with 5.0% glycocholic acid, 37° C., 18 hours, read-out: iPAMPA Pe
[4] = pH 7.4, human hepatic microsome, NADPH(+), read-out: CL NADPH(+)

Compound	Papp at 18 hours, 50 µM [1, 3] [×10⁻⁶ cm/s]	microsomal CLint at 1 uM [2, 4] [µL/min/mg]	Papp at 18 hours, 50 µM ([1]; pH 6.5) [×10⁻⁶ cm/s]	microsomal CLint at 1 uM ([2]; human, pH 7.4, CL NADPH(+)) [µL/min/mg]
CC(C)C[C@H]1C(=O)N[C@H](C(=O)N2CCCCC2)CC(=O)N(C)[C@@H](C)C(=O)N(C)[C@@H](Cc2ccccc2)C(=O)N(C)[C@@H](CC(C)C)C(=O)N[C@@H]([C@@H](C)O)C(=O)N(C)CC(=O)N1C [DP-533] ([NMeA][NMeF][NMeL]T[Sar][NMeL]D-Piperidide; lactam N-7)	10	86	–	–
CC(C)C[C@H]1C(=O)N(C)CC(=O)N(C)[C@@H](Cc2ccccc2)C(=O)N[C@@H](COC(C)(C)C)C(=O)N[C@H](C(=O)N2CCCCC2)CC(=O)N(C)CCCC(=O)N[C@@H]([C@@H](C)O)C(=O)N1C [DP-534] ([NMeGABA]T[NMeL][Sar][NMeF]S(tBu)D-Piperidide; lactam N-7)	6.3	55	–	–
CC(C)C[C@H]1C(=O)N[C@H](C(=O)N2CCCCC2)CC(=O)N(C)CCCC(=O)N(C)[C@@H](Cc2ccccc2)C(=O)N[C@@H]([C@@H](C)O)C(=O)N(C)CC(=O)N[C@@H](COC(C)(C)C)C(=O)N1C [DP-535] ([NMeGABA][NMeF]T[Sar]S(tBu)[NMeL]D-Piperidide; lactam N-7)	21	129	–	–
CC(C)C[C@H]1C(=O)N[C@H](C(=O)N2CCCCC2)CC(=O)N(C)[C@H](C)C(=O)N(C)[C@@H](CC(C)C)C(=O)N[C@@H]([C@@H](C)O)C(=O)N(C)CC(=O)N[C@@H](COC(C)(C)C)C(=O)N1C [DP-536] ([dNMeA][NMeL]T[Sar]S(tBu)[NMeL]D-Piperidide; lactam N-7)	9.9	113	–	–
CC(C)C[C@H]1C(=O)N[C@H](C(=O)N2CCCCC2)CC(=O)N[C@H](C)C(=O)N(C)[C@@H](Cc2ccccc2)C(=O)N(C)[C@@H](CC(C)C)C(=O)N[C@@H]([C@@H](C)O)C(=O)N(C)CC(=O)N1C [DP-537] ([dA][NMeF][NMeL]T[Sar][NMeL]D-Piperidide; lactam N-7)	10	78	–	–
CC(C)C[C@H]1C(=O)N[C@@H]([C@@H](C)O)C(=O)N(C)[C@@H](C)C(=O)N[C@H](C(=O)N2CCCCC2)CC(=O)N[C@H](C)C(=O)N(C)[C@@H](C)C(=O)N(C)[C@@H](Cc2ccccc2)C(=O)N1C [DP-538] ([dA][NMeA][NMeF][NMeL]T[NMeA]D-Piperidide; lactam N-7)	5.5	37	–	–
CC(C)C[C@@H]1NC(=O)[C@H](Cc2ccccc2)N(C)C(=O)[C@H]([C@@H](C)O)NC(=O)[C@H](Cc2ccccc2)N(C)C(=O)[C@H](C)N(C)C(=O)[C@H](C)NC(=O)C[C@@H](C(=O)N2CCCCC2)NC1=O [DP-539] (A[NMeA][NMeF]T[NMeF]LD-Piperidide; lactam N-7)	20	260	–	–
CCCN1CC(=O)N(C)[C@@H](Cc2ccccc2)C(=O)N(C)[C@@H](Cc2ccccc2)C(=O)N(C)[C@@H](CC(C)C)C(=O)N2CCC[C@H]2C(=O)N(C)[C@@H](CC(C)C)C(=O)N[C@@H](C)C(=O)N(C)[C@@H](C(C)C)C(=O)N[C@H](C(=O)N2CCCCC2)CC(=O)N(C)[C@@H](C)C(=O)N[C@@H]([C@@H](C)O)C1=O [DP-541] ([NMeA]T[NPrGly][NMeF][NMeF][NMeL]P[NMeL]A[NMeV]D-Piperidide; lactam N-11)	–	–	23	22
CCN1C(=O)CN(C)C(=O)[C@H]([C@@H](C)O)NC(=O)[C@H](C)N(C)C(=O)C[C@@H](C(=O)N2CCCCC2)NC(=O)[C@H](C(C)C)N(C)C(=O)[C@H](C)NC(=O)[C@H](CC(C)C)N(C)C(=O)[C@@H]2CCCN2C(=O)[C@H](CC(C)C)N(C)C(=O)[C@H](Cc2ccccc2)N(C)C(=O)[C@@H]1Cc1ccccc1 [DP-542] ([NMeA]T[Sar][NEtPhe][NMeF][NMeL]P[NMeL]A[NMeV]D-Piperidide; lactam N-11)	–	–	22	21
CCCN1CC(=O)N(C)[C@@H](CC(C)C)C(=O)N[C@@H]([C@@H](C)O)C(=O)N(C)[C@@H](Cc2ccccc2)C(=O)N(C)[C@@H](CC(C)C)C(=O)N(C)[C@@H]([C@@H](C)CC)C(=O)N(C)[C@@H](C)C(=O)N[C@H](C(=O)N2CCCCC2)CC(=O)N(C)CC(=O)N[C@@H](COC(C)(C)C)C1=O [DP-543] ([Sar]S(tBu)[NPrGly][NMeL]T[NMeF][NMeL][NMeI][NMeA]D-Piperidide; lactam N-10)	28	23	–	–
CCCN1CC(=O)N[C@@H](CC(C)C)C(=O)N[C@@H]([C@@H](C)O)C(=O)N(C)CC(=O)N(C)[C@@H](Cc2ccccc2)C(=O)N[C@@H](C)C(=O)N(C)[C@@H](Cc2ccccc2)C(=O)N(C)[C@@H](CC(C)C)C(=O)N(C)[C@@H]([C@@H](C)CC)C(=O)N(C)[C@@H](CC(C)C)C(=O)N[C@H](C(=O)N2CCCCC2)CC1=O [DP-544] ([NPrGly]LT[Sar][NMeF]A[NMeF][NMeL][NMeI][NMeL]D-Piperidide; lactam N-11)	42	45	–	–
